Reference: publication PMC7005675 (Molecular Cell, 2020)

Molecular target: T1, RsiG (Streptomyces venezuelae, UniProt F2RFR7)
T1 sequence (F2RFR7 1-199): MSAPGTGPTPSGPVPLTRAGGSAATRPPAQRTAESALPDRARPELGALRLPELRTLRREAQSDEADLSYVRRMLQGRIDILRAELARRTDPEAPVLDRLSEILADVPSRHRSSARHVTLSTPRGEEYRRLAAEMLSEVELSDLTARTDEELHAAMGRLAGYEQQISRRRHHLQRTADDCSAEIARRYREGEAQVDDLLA
Assay: fluorescence polarization
Type: binding
Conditions: labelled compound; 150 mM NaCl, 25 mM Tris-HCl pH 7.5, 25°C; 1 nM probe

Substance: 2′-O-(6-[Fluoresceinyl]aminohexylcarbamoyl)-cyclic diguanosine monophosphate [2′-Fluo-AHC-c-di-GMP]
- Kd: 6.5 ± 1.5 µM
